Here are results for 19 molecules from PubChem BioAssay AID330 (DTP/NCI, 2004).

In this assay the test system is P388 leukemia ip, CD2F1 mice, survival T/C. As to the kind of experiment: NCI In Vivo Anticancer Drug Screen. Data for tumor model P388 Leukemia (intraperitoneal) in CD2F1 (CDF1) mice. Particulars: endpoint: median survival time, higher = longer survival. In a few lines:
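Mice carrying the transplanted tumor received test compound or vehicle. Survival was recorded in each group, and the value is the treated-group measurement divided by that of the vehicle-treated control group.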

The mark [1] stands for this setting: dose: 200.0 mg/kg/injection, schedule: Q04DX002 (ip), vehicle: saline.
Setting [2] is: dose: 100.0 mg/kg/injection, schedule: Q01DX001 (ip), vehicle: saline with Tween-80.
The mark [3] stands for this setting: dose: 200.0 mg/kg/injection, schedule: Q01DX001 (ip), vehicle: saline with Tween-80.
Setting [4] is: dose: 400.0 mg/kg/injection, schedule: Q01DX001 (ip), vehicle: saline with Tween-80.
The mark [5] stands for this setting: dose: 60.0 mg/kg/injection, schedule: Q01DX005 (ip), vehicle: saline with Tween-80.
The mark [6] stands for this setting: dose: 50.0 mg/kg/injection, schedule: Q01DX009 (ip), vehicle: Klucel (hydroxypropylcellulose) (HPC).
[7] abbreviates: dose: 100.0 mg/kg/injection, schedule: Q01DX009 (ip), vehicle: Klucel (hydroxypropylcellulose) (HPC).
[8] abbreviates: dose: 200.0 mg/kg/injection, schedule: Q01DX009 (ip), vehicle: Klucel (hydroxypropylcellulose) (HPC).
Where [9] appears, read: dose: 50.0 mg/kg/injection, schedule: Q01DX005 (ip), vehicle: saline with Tween-80.
Where [10] appears, read: dose: 100.0 mg/kg/injection, schedule: Q01DX005 (ip), vehicle: saline with Tween-80.
[11] abbreviates: dose: 200.0 mg/kg/injection, schedule: Q01DX005 (ip), vehicle: saline with Tween-80.

“And” between values parts separate entries of the source, which are not always exact repeats. Equal entries are not always repeated. Inconclusive results and toxic doses are left out.

For the molecule `COCCOC(=O)CCn1cc(F)c(=O)[nH]c1=O`, the T/C is 92 % of control (dose: 30.0 mg/kg/injection, schedule: Q04DX002 (ip), vehicle: saline); 108 % of control (dose: 60.0 mg/kg/injection, schedule: Q04DX002 (ip), vehicle: saline); 96 % of control (dose: 120.0 mg/kg/injection, schedule: Q04DX002 (ip), vehicle: saline); 91 % of control and 123 % of control under setting [1]; 96 % of control (dose: 240.0 mg/kg/injection, schedule: Q04DX002 (ip), vehicle: saline); 93 % of control (dose: 400.0 mg/kg/injection, schedule: Q04DX002 (ip), vehicle: saline). The T/C (dose: 600.0 mg/kg/injection, schedule: Q04DX002 (ip), vehicle: saline) was 91 % of control; the T/C (dose: 800.0 mg/kg/injection, schedule: Q04DX002 (ip), vehicle: saline) is 118 % of control; the T/C (dose: 1600.0 mg/kg/injection, schedule: Q04DX002 (ip), vehicle: saline) is 155 % of control.

With `Cn1cccc/c1=N\N`, the T/C reads like this: (dose: 100.0 mg/kg/injection, schedule: Q04DX002 (ip), vehicle: saline) 100 % of control; under setting [1], 99 % of control.

On to `CCOC(OCC)C(=O)OCC(=O)[C@]1(O)Cc2c(O)c3c(c(O)c2[C@@H](OC2CC(N)C(O)C(C)O2)C1)C(=O)c1c(OC)cccc1C3=O` (stereo partly specified), for which the T/C (dose: 0.13 mg/kg/injection, schedule: Q03HX008 (ip), vehicle: saline) was 111 % of control; the T/C (dose: 0.25 mg/kg/injection, schedule: Q03HX008 (ip), vehicle: saline) was 117 % of control; the T/C (dose: 0.5 mg/kg/injection, schedule: Q01DX009 (ip), vehicle: saline) was 160 % of control; the T/C (dose: 1.0 mg/kg/injection, schedule: Q01DX001 (ip), vehicle: saline) is 118 % of control; the T/C (dose: 1.0 mg/kg/injection, schedule: Q01DX009 (ip), vehicle: saline) is 173 % of control; the T/C (dose: 2.0 mg/kg/injection, schedule: Q01DX001 (ip), vehicle: saline) is 123 % of control. Moreover, the T/C (dose: 2.0 mg/kg/injection, schedule: Q01DX009 (ip), vehicle: saline) is 245 % of control; the T/C (dose: 4.0 mg/kg/injection, schedule: Q01DX009 (ip), vehicle: saline) was 198 % of control; the T/C (dose: 4.0 mg/kg/injection, schedule: Q03HX008 (ip), vehicle: saline) is 168 % of control; the T/C (dose: 8.0 mg/kg/injection, schedule: Q03HX008 (ip), vehicle: saline) was 88 % of control; the T/C (dose: 16.0 mg/kg/injection, schedule: Q01DX001 (ip), vehicle: saline) was 170 % of control; the T/C (dose: 32.0 mg/kg/injection, schedule: Q01DX001 (ip), vehicle: saline) was 189 % of control. Moreover, the T/C (dose: 64.0 mg/kg/injection, schedule: Q01DX001 (ip), vehicle: saline) was 87 % of control.

Take `CCOC(=O)C1=C(Nc2ccc([N+](=O)[O-])cc2)CCCC1`: the T/C reads like this: (dose: 1.56 mg/kg/injection, schedule: Q01DX009 (ip), vehicle: saline) 93 % of control; (dose: 3.12 mg/kg/injection, schedule: Q01DX009 (ip), vehicle: saline) 95 % of control; (dose: 6.25 mg/kg/injection, schedule: Q01DX009 (ip), vehicle: saline) 95 % of control.

For the molecule `COc1ccc2c(c1)Oc1c(Cl)c3c(c(Cl)c1=N2)Oc1cc(OC)ccc1N=3`, the T/C under setting [2] is 89 % of control, the T/C under setting [3] is 89 % of control and the T/C under setting [4] is 115 % of control.

For the molecule `c1ccc(-c2cc3nccnc3[nH]2)cc1`, the T/C is 100 % of control (dose: 15.0 mg/kg/injection, schedule: Q01DX005 (ip), vehicle: Klucel (hydroxypropylcellulose) (HPC)); 92 % of control (dose: 30.0 mg/kg/injection, schedule: Q01DX005 (ip), vehicle: Klucel (hydroxypropylcellulose) (HPC)); 87 % of control and 89 % of control (dose: 60.0 mg/kg/injection, schedule: Q01DX005 (ip), vehicle: Klucel (hydroxypropylcellulose) (HPC)); 97 % of control (dose: 120.0 mg/kg/injection, schedule: Q01DX005 (ip), vehicle: Klucel (hydroxypropylcellulose) (HPC)).

For `Oc1ccccc1C=Nc1ccc(Cl)cn1`, the T/C was 99 % of control (dose: 50.0 mg/kg/injection, schedule: Q01DX009 (ip), vehicle: saline); 100 % of control (dose: 100.0 mg/kg/injection, schedule: Q01DX009 (ip), vehicle: saline); 107 % of control (dose: 200.0 mg/kg/injection, schedule: Q01DX009 (ip), vehicle: saline).

Consider `CCN(CC)CC(O)CNc1ncnc(N)c1C(=C(C)C)c1ccc(Cl)cc1` (stereo unspecified), for which the T/C was 100 % of control (dose: 25.0 mg/kg/injection, schedule: Q01DX009 (ip), vehicle: saline with Tween-80); 100 % of control (dose: 50.0 mg/kg/injection, schedule: Q01DX009 (ip), vehicle: saline with Tween-80); 90 % of control (dose: 100.0 mg/kg/injection, schedule: Q01DX009 (ip), vehicle: saline with Tween-80).

Consider `O=C1C(c2ccccc2)=C(c2ccccc2)C(=O)N1CCN1CCCC1`, for which the T/C reads like this: under setting [5], 105 % of control; (dose: 120.0 mg/kg/injection, schedule: Q01DX005 (ip), vehicle: saline with Tween-80) 110 % of control; (dose: 240.0 mg/kg/injection, schedule: Q01DX005 (ip), vehicle: saline with Tween-80) 108 % of control.

Consider `Cc1ccc(S(=O)(=O)NCCN(CCNS(=O)(=O)c2ccc(C)cc2)S(=O)(=O)c2ccc(C)cc2)cc1`, for which the T/C by setting is: under setting [2], 86 % of control; under setting [3], 86 % of control; under setting [4], 88 % of control.

Turning to `CCCCCCCCCOCC(O)CCl` (stereo unspecified), the T/C is 97 % of control under setting [6], 98 % of control under setting [7] and 93 % of control under setting [8].

For `COC(=O)C1=[N+]([O-])OC(C(=O)OC)C1c1ccc(NC(C)=O)cc1` (stereo unspecified), the T/C by setting is: under setting [9], 98 % of control; under setting [10], 93 % of control; under setting [11], 90 % of control.

Regarding `CC(/C=C/c1ccccc1)=N\NC(=O)c1ccccc1`, the T/C is 108 % of control (dose: 6.25 mg/kg/injection, schedule: Q01DX005 (ip), vehicle: Klucel (hydroxypropylcellulose) (HPC)); 97 % of control (dose: 12.5 mg/kg/injection, schedule: Q01DX005 (ip), vehicle: Klucel (hydroxypropylcellulose) (HPC)); 100 % of control and 108 % of control and 96 % of control (dose: 25.0 mg/kg/injection, schedule: Q01DX005 (ip), vehicle: Klucel (hydroxypropylcellulose) (HPC)); 112 % of control (dose: 100.0 mg/kg/injection, schedule: Q01DX005 (ip), vehicle: Klucel (hydroxypropylcellulose) (HPC)).

For `CCCCN(CCCC)c1cc(=O)nc2ccccn12`, the T/C by setting is: (dose: 60.0 mg/kg/injection, schedule: Q01DX005 (ip), vehicle: saline) 101 % of control; (dose: 120.0 mg/kg/injection, schedule: Q01DX005 (ip), vehicle: saline) 101 % of control; (dose: 240.0 mg/kg/injection, schedule: Q01DX005 (ip), vehicle: saline) 100 % of control.

For the molecule `O=c1[nH]c2ccc(Cl)cc2[nH]c1=O`, the T/C was 99 % of control under setting [9], 100 % of control under setting [10] and 94 % of control under setting [11].

Take `C[N+]1(Cc2ccccc2)CCC(O)(C(=O)c2ccccc2)CC1` (stereo unspecified): the T/C by setting is: (dose: 15.0 mg/kg/injection, schedule: Q01DX005 (ip), vehicle: saline with Tween-80) 98 % of control; (dose: 30.0 mg/kg/injection, schedule: Q01DX005 (ip), vehicle: saline with Tween-80) 100 % of control; under setting [5], 104 % of control and 86 % of control.

In the case of `CCCCCCCCCCCCNc1ccc(Cl)cc1`, the T/C is 117 % of control and 123 % of control under setting [6]; 103 % of control and 113 % of control under setting [7]; 117 % of control under setting [8].

With `CC1=C(/C=C/C(C)=C/C=C/C(C)=C/CO)C(C)(C)CCC1`, the T/C runs as follows: under setting [9], 98 % of control; under setting [10], 94 % of control; (dose: 100.0 mg/kg/injection, schedule: Q04DX003 (ip), vehicle: saline with Tween-80) 100 % of control; under setting [11], 116 % of control; (dose: 200.0 mg/kg/injection, schedule: Q04DX003 (ip), vehicle: saline with Tween-80) 100 % of control.

For `CC(C)[NH-].CC(C)[NH-].O.O.[Cl][Pt+2][Cl]`, the T/C by setting is: (dose: 8.0 mg/kg/injection, schedule: Q01DX009 (ip), vehicle: saline with Tween-80) 167 % of control; (dose: 12.5 mg/kg/injection, schedule: Q01DX009 (ip), vehicle: saline with Tween-80) 184 % of control; (dose: 18.0 mg/kg/injection, schedule: Q01DX009 (ip), vehicle: saline with Tween-80) 202 % of control.
